Experimental data reported in patent US7820834B2, “Triptolide 5,6-derivatives as immunomodulators and anticancer agents” (Pharmagenesis, Inc., priority 2004, dated 2010).

Assays:
Format in all cases: cell-based
[1] = system: Jurkat human T lymphoma cell line; assay: Annexin V Apoptosis Assay; details: 24 h, dose-dependent, FIG. 1
Description: Test samples were diluted to 1 mM in complete tissue culture medium (RPMI 1640 medium plus 5% heat-inactivated fetal calf serum, 1% HEPES, 1% pen/strep, 1% glutamine). Aliquots were placed in microculture plates and serial dilutions were prepared so that the final concentration would encompass the range of 2 to 6,000 nM with half-log increments. Cells from an exponentially expanding culture of the Jurkat human T lymphoma cell line (#TIB-152 obtained from American Type Culture Collection, Manassas, Va.) were harvested, washed once by centrifugation, re-suspended in complete tissue culture medium, and further diluted to a concentration of 1×10^6 cells/ml. A volume of 100 μl of the cells (1×10^5 cells) was added to wells containing 100 μl of the diluted compounds, and the plates were incubated at 37° C. in a 5% CO2 incubator.
After 24 hours, the plates were centrifuged to pellet the cells, and the cells were washed twice with 2% heat-inactivated fetal calf serum in PBS. […] The contents of the wells were individually transferred into test tubes, and apoptosis was analyzed using a FACSCalibur flow cytometer (BD Immunocytometry Systems, San Jose, Calif.). Cells positive for Annexin V binding were considered to be apoptotic, and the data were calculated as percent apoptotic cells. […]

[2] = system: IL-2 production in Jurkat cells; assay: IL-2 Inhibition Assay; details: without previous incubation in human serum, FIG. 4
Description: Test compounds were diluted to 1 mM in complete tissue culture medium. Aliquots were placed in microculture plates coated with anti-CD3 antibody (used to stimulate the production of IL-2 by Jurkat cells), and serial dilutions were prepared so that the final concentration would encompass the range of 0.001 to 10,000 nM in log increments.
Invention compound 14-acetyl-5,6-didehydrotriptolide (designated PG746) was tested with and without a previous 16-hr incubation in human serum. Such incubation is expected to substantially convert the 14-acetyl group of PG746 to a 14-hydroxy group.
Cells from an exponentially expanding culture of Jurkat human T cell line (#TIB-152 obtained from American Type Culture Collection, Manassas, Va.) were harvested, washed once by centrifugation, re-suspended in complete tissue culture medium, and diluted to a concentration of 10^7 cells/ml. A volume of 50 μl of Jurkat cells was added to wells containing 100 μl of the diluted compounds, and the cells were stimulated with 50 ng/ml PMA and […] PHA. The plates were incubated at 37° C. in a 5% CO2 incubator. […] The stored supernatants were analyzed for human IL-2 concentration using the Luminex 100 (Luminex Corporation, Austin, Tex.), Luminex microspheres coupled with anti-IL-2 capture antibody, and fluorochrome-coupled anti-IL-2 detection antibody. The data were expressed as pg/ml of IL-2. […]

[3] = system: human T cell lymphoma (Jurkat) cells; assay: Cytotoxicity (MTT) Assay; details: FIG. 2
Description: Test compounds were dissolved in DMSO at a concentration of 20 mM. Further dilutions were done in RPMI1640 medium (GIBCO, Rockville, Md.) supplemented with 10% Fetal Calf Serum (HyClone Laboratories, Logan, Utah). Invention compound 14-acetyl-5,6-didehydrotriptolide (designated PG746) was tested with and without a previous 16-hr incubation in human serum. Such incubation is expected to substantially convert the 14-acetyl group of PG746 to a 14-hydroxy group.
Cytotoxicity of the compounds was determined in a standard MTT assay using Cell Proliferation Kit I (#1 465 007, Roche Diagnostics, Mannheim, Germany). Accordingly, human T cell lymphoma (Jurkat) cells (4×10^5 per well) were cultured for 24 h, in 96-well tissue culture plates, in the presence of serial three-fold dilutions of test compounds or medium containing the same concentration of DMSO as in the test samples at each dilution point. The cultures were then supplemented with 10 μl/well MTT reagent for 4 h and then with 0.1 ml/well solubilizing reagent for an additional 16 h. Optical density at 570 nm was measured on a ThermoScan microplate reader (Molecular Devices, Menlo Park, Calif.).
The data is presented as OD570 values versus concentration of the compounds. The results for invention compound 14-acetyl-5,6-didehydrotriptolide (designated PG746) and triptolide (designated PG490) are given in FIG. 2.

CC(C)[C@]12O[C@H]1[C@@H]1O[C@]13[C@]1(O[C@H]1C[C@@]1(O)C4=C(CC[C@]31C)C(=O)OC4)[C@@H]2O [PG701, 5-α-hydroxytriptolide] was tested, and the “induction of apoptosis (Annexin V positive cells)” value [1] was “induced apoptosis in Jurkat cells”.
For CC(=O)O[C@@H]1[C@@]2(C(C)C)O[C@H]2[C@@H]2O[C@]23[C@]12O[C@H]2C=C1C2=C(CC[C@@]13C)C(=O)OC2 [PG746, 14-acetyl-5,6-didehydrotriptolide], the “inhibition of IL-2 production, activity relative to the medium control” value [2] was “no significant activity relative to the medium control”, the “concentrations at which the compound was clearly cytotoxic to Jurkat cells (MTT)” value ([3]; after incubation for 16 hours with human serum) was no less than 1000 nM and the “cytotoxicity (MTT), activity relative to the medium control” value ([3]; in assay medium, without previous incubation in human serum) was “no significant activity relative to the medium control”.
